Reference: patent US8623325B2, “Azide modified charge sensitive channel proteins” (priority 2008, dated 2014)

Molecular target: T1, E. coli channel protein MscL Gly22Cys (Escherichia coli, UniProt P0A742, G22C)
T1 construct: made in house
Test: Calcein release from liposomes containing MscL Gly22Cys (self-quenching fluorescent dye)
Type: biochemical
Procedure: MscL-MA was reconstituted into synthetic liposomes composed of azolectin by using a detergent mediated reconstitution method. The incorporation of channels protein in lipid vesicles is describe in detail in WO2005051902 This procedure was performed in the presence of calcein, a self-quenching fluorescent dye. At high local concentrations inside the liposomes, the fluorescence of calcein is low. Release of calcein from liposomes results in dilution of the dye and consequently in a large increase in fluorescence intensity. The labelling and reconstitution was validated by using unlabeled MscL instead of MscL-MA.
The activity of azide labeled Gly22Cys MscL in the liposome was verified with triphenylphosphine (Trisodium triphenylphosphine-3,3′,3″-trisulfonate) at pH 7.2-7.5 at 37° C.
A control experiment was performed using vesicles with unlabelled Gly22Cys MscL and the channel activator MTSET, which is a charged and cysteine-reactive molecule.
MscL-MA has a closed conformation. Calcein can not leave from a vesicle via this closed MscL-MA. To these vesicles MTSET was added. Unlabelled cysteine residues, if present, will react with MTSET and introduce a charge in the channel protein resulting in the opening of the channel and release of fluorescent label. Such residual activation was not observed, showing that a quantitative MA labelling of all cysteines in MscL was obtained (FIG. 7, bottom panel).
In the experimental setting calcein-filled vesicles with MscL-MA are treated with triphenylphosphine at […].
Control experiments are performed using the same calcein filled vesicles with MscL, which is not modified with MA and wherein these unmodified vesicles are treated with triphenylphosphine.

T1 sequence (P0A742 whole entry G22C): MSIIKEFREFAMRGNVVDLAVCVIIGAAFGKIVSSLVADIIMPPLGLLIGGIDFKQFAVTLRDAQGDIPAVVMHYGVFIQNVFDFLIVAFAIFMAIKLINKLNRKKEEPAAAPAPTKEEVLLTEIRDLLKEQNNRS

Structure (SMILES)	release from MscL upon contacting with phosphine (MscL modified with compound IX, calcein filled vesicles, pH 7.4)	calcein release after addition of MTSET (calcein-filled liposomes with unlabelled (unmodified) Gly22Cys MscL)	activation / calcein release after addition of MTSET (vesicles with azide-modified MscL (MscL-MA))
CS(=O)(=O)SCCOC(=O)CNC(=O)OCc1ccc(N=[N+]=[N-])cc1 [compound IX]	significant increase in release	–	–
C[N+](C)(C)CCSS(C)(=O)=O.[Br-] [MTSET]	–	resulted in calcein release	could not activate the modified MscL
